Measured values reported in ChEMBL document CHEMBL6083243, “Design, synthesis and biological evaluation of sulfonylurea derivatives as NLRP3 inflammasome inhibitors” (Bioorg Med Chem Lett, 2024).
Calls of active or inactive are those of the source. The rule behind the calls is not given here.

Key:
[1] = target: NACHT, LRR and PYD domains-containing protein 3 (Mus musculus, UniProt Q8R4B8); experiment: Inhibition of NLRP3 inflammasome activation in LPS/Nigericin stimulated mouse BMDM cells assessed as reduction in cleaved-IL-1 beta level by ELISA method; format: cell-based
Carbonic anhydrase 2 = Carbonic anhydrase 2 (Homo sapiens, UniProt P00918); experiment: Inhibition of Carbonic anhydrase II (unknown origin)
[2] = target: NACHT, LRR and PYD domains-containing protein 3 (Mus musculus) (UniProt Q8R4B8); experiment: Inhibition of NLRP3 inflammasome activation in LPS/Nigericin stimulated mouse BMDM cells assessed as reduction in active caspase-1 level by Western blot analysis; format: cell-based; details: dose 0.2-2 µM
[3] = target: NACHT, LRR and PYD domains-containing protein 3 (Mus musculus) (UniProt Q8R4B8); experiment: Inhibition of NLRP3 inflammasome activation in LPS/Nigericin stimulated mouse BMDM cells assessed as reduction in IL-1 beta level by Western blot analysis; format: cell-based; details: dose 0.2-2 µM
BMDM = experiment: Effect on NLRP3 protein expression in mouse BMDM cell lysate at 0.02 to 2 uM by Western blot analysis; format: functional, subcellular; details: dose 0.02-2 µM

Chain of NACHT, LRR and PYD domains-containing protein 3 (Q8R4B8 whole entry, the tested form may be a part): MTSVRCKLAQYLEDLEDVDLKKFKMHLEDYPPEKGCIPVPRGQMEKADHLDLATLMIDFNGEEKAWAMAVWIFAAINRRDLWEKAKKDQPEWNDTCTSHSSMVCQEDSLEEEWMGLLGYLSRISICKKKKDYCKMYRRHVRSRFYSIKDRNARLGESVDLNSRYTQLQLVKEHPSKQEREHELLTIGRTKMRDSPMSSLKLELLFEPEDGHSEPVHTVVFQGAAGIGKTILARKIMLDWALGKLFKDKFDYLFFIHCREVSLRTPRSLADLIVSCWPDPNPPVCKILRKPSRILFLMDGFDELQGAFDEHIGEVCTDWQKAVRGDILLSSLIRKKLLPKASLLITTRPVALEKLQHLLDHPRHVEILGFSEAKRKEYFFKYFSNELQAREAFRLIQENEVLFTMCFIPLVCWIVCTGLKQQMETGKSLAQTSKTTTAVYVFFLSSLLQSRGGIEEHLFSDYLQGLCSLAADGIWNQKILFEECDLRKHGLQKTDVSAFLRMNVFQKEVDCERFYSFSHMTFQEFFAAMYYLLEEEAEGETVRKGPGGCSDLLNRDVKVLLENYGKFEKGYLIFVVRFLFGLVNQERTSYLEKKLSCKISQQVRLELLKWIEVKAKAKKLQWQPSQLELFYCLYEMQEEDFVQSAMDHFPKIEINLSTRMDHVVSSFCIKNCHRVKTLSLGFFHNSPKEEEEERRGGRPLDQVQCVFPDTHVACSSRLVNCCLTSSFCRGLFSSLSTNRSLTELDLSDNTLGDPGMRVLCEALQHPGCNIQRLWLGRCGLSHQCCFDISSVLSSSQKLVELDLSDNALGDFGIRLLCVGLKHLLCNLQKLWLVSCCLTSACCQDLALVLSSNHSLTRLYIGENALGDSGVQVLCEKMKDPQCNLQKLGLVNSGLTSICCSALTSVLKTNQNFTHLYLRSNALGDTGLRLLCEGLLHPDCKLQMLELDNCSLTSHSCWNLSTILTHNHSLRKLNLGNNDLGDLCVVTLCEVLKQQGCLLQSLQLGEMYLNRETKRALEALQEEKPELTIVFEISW
Chain of NACHT, LRR and PYD domains-containing protein 3 (Mus musculus) (Q8R4B8 whole entry, the tested form may be a part): as above

IC50 [1] [nM]	IC50 (Carbonic anhydrase 2) [nM]	inhibition [2]	inhibition [3]	SMILES	Activity (BMDM)
126	11000			CC(C)(O)c1coc(S(=O)(=O)NC(=O)Nc2c3c(cc4c2CCC4)CCC3)c1	
805		Dose-dependent-effect	Dose-dependent-effect	O=C(Nc1c(Br)cc(Cl)cc1Oc1ccccc1)NS(=O)(=O)c1cc(Br)cc2c1OCC2	inactive
171				CC(C)c1cc(Cl)cc(C(C)C)c1NC(=O)NS(=O)(=O)c1cc(C(C)(C)O)co1	
